For assay [1], the system named is human neural cell line ReNcell VM. Put plainly: Cyquant cell viability assay, neural cell line, compound concentration screening. The format is cell-based. The note with it: only this component's concentration changed. As to the method: 6-well culture plates were coated with 50 μg/mL polylysine (SIGMA, P6407) and incubated for more than 3 h at 37° C. in a thermostat after plate laying; then further coated with 5 μg/mL Laminin (I2020, SIGMAALDRICH) and incubated for more than 3 h at 37° C. in a thermostat after plate laying. Mouse primary cells and the human neural cell line ReNcell VM were cultured, where mouse primary cell isolation was performed according to the method described in Nature Protocols. Volume 7, pages 1741-1754 (2012). Cell culture conditions were 37° C., 5% carbon dioxide (Panasonic, MCO-18AC), and cell adherent culture. The culture medium of the present invention, Neuralbasal+I0% FBS and N2B27 culture medium were used for comparison, respectively. Cell passage was digested with 0.05% trypsin/EDTA at 37° C. for 5 min, and the cell digestion was terminated with DMEM+10% FBS. […]
The Cyquant assay is used for quantitative detection of cell viability to compare the effects of different medium components on the physiological state of cells during long-term cell culture. […] Samples were taken on day 1, day 5, day 15 and day 30, and cell viability assays were performed using CyQuant Kit (Invitrogen, X12223) and operated according to the instruction manual, and using SpectraMax i3 Multi-Mode Microplate Reader (VWR, model ID3-STD) for data reading. […]

A further assay has as its system induced cortical neurons. Put plainly: Cyquant cell viability assay during induction of cortical neurons. The note with it: FIG. 6n; cortical neuron induction. The format is cell-based, human. The protocol:
For cortical neuron differentiation, 6-well culture plates were coated with 50 μg/mL poly-Lysine (SIGMA, P6407) and incubated for more than 3 h in a 37° C. incubator after plate laying; then further coated with 3 μg/mL laminin (Laminin, 12020, SIGMAALDRICH) and incubated for more than 3 h at 37° C. after plate laying. The induced nerve stem cells obtained in Example 3 was re-inoculated into T25 culture plates at a rate of 1×105 per vial. Neural stem cells were cultured using NouvNeu culture medium at 37° C. and 5% CO2 (Panasonic, MCO-18AC), and the medium was replaced with fresh medium every three days until neurons formation on day 30. In the control experiment, N2B27 medium was used for neuron induction, and the specific operation steps were the same as above.
The Cyquant assay is used for quantitative detection of cell viability to compare the effects of different medium components on the physiological state of cells during long-term cell culture. […] Samples were taken on day 1, day 10, day 15 and day 35, and cell viability assays were performed using CyQuant Kit (Invitrogen, X12223) and operated according to the instruction manual, and using SpectraMax i3Multi-Mode Microplate Reader (VWR, Model ID3-STD) for data reading. […]

Two compounds from patent US20230416688A1, “CHEMICAL CULTURE SYSTEM AND USE THEREOF” (IREGENE THERAPEUTICS LTD, priority 2020, published 2023) can be followed below.

With `O=C[C@H](O)[C@@H](O)[C@@H](O)[C@H](O)CO` [D(+)-galactose], the “use range of concentration in the medium (Cyquant)” value (in assay [1] (FIG. 2b); in the assay on induced cortical neurons) was 5 to 25 µg/mL each time.

In the case of “recombinant human transferrin: recombinant human transferrin, component of the NouvNeu medium”, the “use range of concentration in the medium (Cyquant)” value in assay [1] (FIG. 2d) lay within 0.05 to 0.2 µg/mL.
